Measured values reported in paper PMC6264278, “Corydaline Inhibits Multiple Cytochrome P450 and UDP-Glucuronosyltransferase Enzyme Activities in Human Liver Microsomes” (Molecules, 2011).

Molecular target: T1, CYP1A2 (Homo sapiens, UniProt P05177)
T1 construct: using pooled human liver microsomes; tissue BD Gentest Co. H161; host or cells: pooled human liver microsomes
T1 sequence (P05177 1-516): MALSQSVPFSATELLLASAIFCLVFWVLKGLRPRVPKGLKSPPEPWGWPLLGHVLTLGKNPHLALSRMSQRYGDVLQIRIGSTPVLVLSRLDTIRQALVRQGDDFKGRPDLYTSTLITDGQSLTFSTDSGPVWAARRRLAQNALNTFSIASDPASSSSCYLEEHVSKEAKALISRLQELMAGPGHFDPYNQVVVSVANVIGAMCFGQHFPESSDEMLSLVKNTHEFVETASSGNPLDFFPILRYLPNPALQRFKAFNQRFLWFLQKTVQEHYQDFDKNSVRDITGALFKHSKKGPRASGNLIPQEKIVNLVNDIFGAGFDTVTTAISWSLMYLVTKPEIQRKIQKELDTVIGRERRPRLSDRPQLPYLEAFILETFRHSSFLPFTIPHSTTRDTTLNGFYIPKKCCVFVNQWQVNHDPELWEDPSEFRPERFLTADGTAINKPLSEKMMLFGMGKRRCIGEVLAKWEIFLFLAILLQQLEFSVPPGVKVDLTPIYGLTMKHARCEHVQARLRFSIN
Assay: CYP1A2 phenacetin O-deethylation inhibition, cocktail assay in pooled human liver microsomes
Assay type: in vitro ADME
Details: 50 μM phenacetin, no inhibition at 200 μM of corydaline; for IC50 no preincubation, CYP1A2 phenacetin O-deethylation: pooled human liver microsomes (H161)
Procedure: Phenacetin O-deethylase, coumarin 7-hydroxylase, amodiaquine N-deethylase, diclofenac 4-hydroxylase, S-mephenytoin 4-hydroxylase, bufuralol hydroxylase, and midazolam 1’-hydroxylase activities were determined as probe activities for CYP1A2, CYP2A6, CYP2C8, CYP2C9, CYP2C19, CYP2D6, and CYP3A4, respectively, using cocktail incubation and liquid chromatography-tandem mass spectrometry (LC/MS/MS). The incubation mixtures were prepared in a total volume of 200 μL, as follows: pooled human liver microsomes (0.25 mg/mL), 1.3 mM NADPH, 3.3 mM MgCl2, 50 mM potassium phosphate buffer (pH 7.4), and a cocktail of probe substrates and various concentrations of corydaline (1−200 μM). The substrates were used at concentrations approximately equal to their respective Km values: 50 μM phenacetin, 2.5 μM coumarin, 2.5 μM amodiaquine, 10 μM diclofenac, 100 μM S-mephenytoin, 5 μM bufuralol, and 2.5 μM midazolam. After a 3-min pre-incubation period at 37 °C, the reactions were initiated by addition of an NADP generating system and incubated for 20 min at 37 °C in a shaking water bath. After incubation, the reaction was stopped by placement of the tubes on ice and addition of 100 μL of ice-cold methanol containing internal standards (^13C2,^15N-acetaminophen for acetaminophen and N-desethylamodiaquine, d5-7-hydroxycoumarin for 7-hydroxycoumarin, ^13C6-4-hydroxydiclofenac for 4-hydroxydiclofenac, d3-4-hydroxy-mephenytoin for 4-hydroxymephenytoin and hydroxymidazolam, d9-1-hydroxybufuralol for 1-hydroxybufuralol). The incubation mixtures were then centrifuged at 13,000 × g for 5 min. All incubations were performed in triplicate and the mean values were used. […] The reaction was started by addition of a cocktail of CYP probe substrates.
All 7 metabolites produced from the cocktail of CYP isoform-specific substrates were simultaneously determined by LC/MS/MS [25]. […] Quantification was performed by selected reaction monitoring (SRM) of the [M+H]^+ ion and the related product ion for each metabolite. […]

IC50 no preincubation, CYP1A2 phenacetin O-deethylation: negligible inhibition | IC50 no preincubation, CYP1A2 phenacetin O-deethylation (listed as corydaline): No inhibition ** | IC50 with preincubation, CYP1A2 phenacetin O-deethylation (pre-incubated 30 min with NADPH): No inhibition **
SMILES: COc1cc2c(cc1OC)C1C(C)c3ccc(OC)c(OC)c3CN1CC2 (stereo not drawn) [Corydaline, 2,3,9,10-tetramethoxy-13-methyl-5,8,13,13a-tetrahydro-6H-isoquino[3,2-a]isoquinoline]
